These results are taken from patent publication US8912329B2 (priority 2009, dated 2014).

The experiment has as its target EthR-VP16 (Mycobacterium bovis, UniProt Q7TVI1). Kind of experiment: cell-based. The following applies: 48 h, read-out: % EthR activity (w/o = 100%); ± std. dev. of the mean (n = 3). Also noted: species or system M. bovis.

EthR-VP16, sequence (Q7TVI1 whole entry, looked up): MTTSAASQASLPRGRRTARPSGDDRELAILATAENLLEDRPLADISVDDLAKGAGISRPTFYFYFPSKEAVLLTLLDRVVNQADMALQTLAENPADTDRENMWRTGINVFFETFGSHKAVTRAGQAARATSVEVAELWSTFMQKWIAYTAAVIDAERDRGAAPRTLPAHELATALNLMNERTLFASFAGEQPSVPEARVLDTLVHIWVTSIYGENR

On to `CCCCC(=O)N1CCOC(c2ccccc2)C1` (stereo not shown) [Example 30, 1-(2-Phenylmorpholin-4-yl)pentan-1-one], for which the remaining activity at 0.5 µM worked out at 112 ± 16.1%, the remaining activity at 1.5 µM was determined as 111 ± 17.1%, the remaining activity at 3 µM amounted to 101 ± 5.87% and the remaining activity at 6 µM was 90.5 ± 5.55%. The remaining activity at 15 µM is 69.2 ± 8.71%, the remaining activity at 30 µM worked out at 43.3 ± 2.01%, the remaining activity at 60 µM was determined as 26.9 ± 2.34% and the remaining activity at 300 µM was found to be 14.9 ± 3%.
For `CCCCCC(=O)N1CCC(c2ccccc2)C1` (stereo not shown) [Example 33, 1-(3-Phenylpyrrolidin-1-yl)hexan-1-one], the remaining activity at 0.5 µM was 11.4 ± 3.47%, the remaining activity at 1.5 µM was found to be 14.9 ± 5.68%, the remaining activity at 3 µM was 5.8 ± 2.33% and the remaining activity at 6 µM turned out to be 3.83 ± 1.01%. The remaining activity at 15 µM stood at 4.58 ± 1.34%, the remaining activity at 30 µM turned out to be 5.01 ± 0.8%, the remaining activity at 60 µM was 5.24 ± 2.58% and the remaining activity at 300 µM turned out to be 2.78 ± 1.33%.
`CCCCCC(=O)N1CCOC(c2ccccc2)C1` (stereo not shown) [Example 31, 1-(2-Phenylmorpholin-4-yl)hexan-1-one]: the remaining activity at 0.5 µM was 106 ± 17.5%, the remaining activity at 1.5 µM is 103 ± 16.4%, the remaining activity at 3 µM was determined as 94.1 ± 15.9% and the remaining activity at 6 µM was determined as 63.7 ± 5.26%. In addition, the remaining activity at 15 µM was found to be 33.2 ± 1.27%, the remaining activity at 30 µM was 25 ± 4.22%, the remaining activity at 60 µM was 17.8 ± 4.01% and the remaining activity at 300 µM stood at 15 ± 2.11%.
Turning to `CCCC(=O)N1CCN(Cc2ccccc2)CC1` [Example 1, 1-(4-Benzylpiperazin-1-yl)butan-1-one], the remaining activity at 0.5 µM came out at 72.5 ± 1.65%, the remaining activity at 1.5 µM was determined as 76.5 ± 17.5%, the remaining activity at 3 µM amounted to 68.7 ± 2.79% and the remaining activity at 6 µM is 73.2 ± 1.19%. Besides, the remaining activity at 15 µM stood at 72.6 ± 6.82%, the remaining activity at 30 µM stood at 64.1 ± 14%, the remaining activity at 60 µM amounted to 53.1 ± 7.78% and the remaining activity at 300 µM came to 27.3 ± 5.27%.
On to `O=C(CCCc1ccccc1)N1CCC1c1ccccc1` (stereo not shown) [Example 23, 4-Phenyl-1-(2-phenylazetidin-1-yl)butan-1-one], for which the remaining activity at 0.5 µM worked out at 96.3 ± 10%, the remaining activity at 1.5 µM was determined as 102 ± 12.3%, the remaining activity at 3 µM was 101 ± 9.55% and the remaining activity at 6 µM is 90.1 ± 9.21%. Also, the remaining activity at 15 µM worked out at 86.8 ± 5.76%, the remaining activity at 30 µM came out at 81.5 ± 5.22%, the remaining activity at 60 µM was found to be 49.4 ± 1.49% and the remaining activity at 300 µM was determined as 6.18 ± 2.53%.
As for `O=C(CCc1ccccc1)N1CCOC(c2ccccc2)C1` (stereo not shown) [Example 21, 3-Phenyl-1-(2-phenylmorpholin-4-yl)propan-1-one], the remaining activity at 0.5 µM was determined as 108 ± 7.36%, the remaining activity at 1.5 µM is 98.5 ± 16.4%, the remaining activity at 3 µM was determined as 73.5 ± 7.58% and the remaining activity at 6 µM came to 60.2 ± 8.98%. In addition, the remaining activity at 15 µM came out at 40.8 ± 4.81%, the remaining activity at 30 µM was determined as 8.33 ± 5.61%, the remaining activity at 60 µM is 6.29 ± 1.05% and the remaining activity at 300 µM stood at 1.34 ± 1.58%.
As for `O=C(CCc1ccccc1)N1CC(Cc2ccccc2)C1` [Example 25, 1-(3-Benzylazetidin-1-yl)-3-phenylpropan-1-one], the remaining activity at 0.5 µM amounted to 86.8 ± 9.98%, the remaining activity at 1.5 µM stood at 88.5 ± 8.12%, the remaining activity at 3 µM was 69.5 ± 4.27% and the remaining activity at 6 µM turned out to be 48 ± 5.86%. For the same compound, the remaining activity at 15 µM was 28.7 ± 3.22%, the remaining activity at 30 µM was determined as 19.5 ± 0.89%, the remaining activity at 60 µM was 14.2 ± 3.23% and the remaining activity at 300 µM was found to be 6.03 ± 2%.
For the compound `CCCC(=O)N1CCOC(c2ccccc2)C1` (stereo not shown) [Example 3, 1-(2-Phenylmorpholino)butan-1-one], the remaining activity at 0.5 µM was found to be 85.5 ± 2.57%, the remaining activity at 1.5 µM worked out at 96.82 ± 0.67%, the remaining activity at 3 µM is 84.4 ± 6.37% and the remaining activity at 6 µM was 90.1 ± 6.44%. Further, the remaining activity at 15 µM is 98.4 ± 4.51%, the remaining activity at 30 µM was determined as 86.5 ± 4.1%, the remaining activity at 60 µM stood at 81.9 ± 8.6% and the remaining activity at 300 µM was 40.2 ± 4.65%.
